A value given as a limit tells only on which side of the number the result lay.

The term IC50 denotes the concentration at which inhibition is half-maximal.

Assay [1] deals with T1, hPAD4 enzyme (Homo sapiens, UniProt Q9UM07). Briefly: RFMS Assay 2 (rapid-fire mass spectrum PAD4 inhibition assay, peptide substrate). As to conditions: 35 nM recombinant human PAD4, substrate TSTGGRQGSHH, room temperature for 30 minutes; read-out: human PAD4 (hPAD4) IC50, RFMS Assay 2. It counts as biochemical. In outline:
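Recombinant human PAD4 (35 nM) reacted 30 min at room temperature with 500 µM peptide TSTGGRQGSHH in pH 7.4 HEPES, 200 mM NaCl, 2 mM CaCl2, 5 mM DTT, 1.2% DMSO. Quenched with formic acid; substrate and citrullinated product quantified by RapidFire MRM mass spectrometry.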

The target in assay [2] is T1, hPAD4 enzyme. Briefly: RFMS Assay 1 (rapid-fire mass spectrum PAD4 inhibition assay, BAEE substrate). Format: biochemical. Conditions: 5 nM hPAD4 enzyme, 250 μM BAEE, 30 mins compound and enzyme preincubation at 37° C., 90 min enzyme/substrate reaction. In short, it runs like this:
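Human PAD4 (5 nM) preincubated 30 min at 37 °C with compound (top 50 μM, 0.5% DMSO), then 250 μM BAEE for 90 min at 37 °C in pH 7.5 HEPES with 50 μM calcium, 5 μM TPEN, 1 mM DTT. Product derivatized with phenyl glyoxal; citrulline product quantified by RapidFire MS/MS MRM, normalized to internal standard.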

T1 sequence (Q9UM07 whole entry): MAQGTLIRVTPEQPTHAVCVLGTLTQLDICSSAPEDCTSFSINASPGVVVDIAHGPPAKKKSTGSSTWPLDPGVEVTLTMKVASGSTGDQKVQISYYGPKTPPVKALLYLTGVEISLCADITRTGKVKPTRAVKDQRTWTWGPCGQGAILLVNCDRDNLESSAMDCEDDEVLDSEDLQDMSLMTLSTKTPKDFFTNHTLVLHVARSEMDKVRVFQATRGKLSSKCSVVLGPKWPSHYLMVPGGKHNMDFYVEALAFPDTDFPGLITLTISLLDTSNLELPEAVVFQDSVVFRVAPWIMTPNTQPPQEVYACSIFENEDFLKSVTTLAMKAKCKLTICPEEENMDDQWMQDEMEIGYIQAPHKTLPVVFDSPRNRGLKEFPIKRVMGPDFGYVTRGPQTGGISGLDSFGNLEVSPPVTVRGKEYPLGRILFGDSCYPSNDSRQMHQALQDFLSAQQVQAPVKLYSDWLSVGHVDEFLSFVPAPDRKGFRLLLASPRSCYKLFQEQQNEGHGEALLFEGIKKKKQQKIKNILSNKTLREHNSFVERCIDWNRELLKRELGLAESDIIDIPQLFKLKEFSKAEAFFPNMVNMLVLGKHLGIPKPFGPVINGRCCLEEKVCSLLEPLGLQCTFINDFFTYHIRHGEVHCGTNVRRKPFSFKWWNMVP

Turning to `COc1cccc2cc(-c3nc4cc5c(nc4n3C)CCN(C[C@H]3COCCN3)C5=O)n(CC3CC3)c12` [Example 27, (S)-2-(1-(cyclopropylmethyl)-7-methoxy-1H-indol-2-yl)-3-methyl-7-(morpholin-3-ylmethyl)-3,5,6,7-tetrahydro-8H-imidazo[4,5-b][1,6]naphthyridin-8-one], the IC50 was greater than 1 µM at hPAD4 enzyme [1] and 0.501 to 1 µM on hPAD4 enzyme [2].

In the case of `COc1cccc2cc(-c3nc4cc5c(nc4n3C)CCN(C[C@H](N)CF)C5=O)n(CC3(F)CC3)c12` [Example 15, (S)-7-(2-amino-3-fluoropropyl)-2-(1-((1-fluorocyclopropyl)methyl)-7-methoxy-1H-indol-2-yl)-3-methyl-3,5,6,7-tetrahydro-8H-imidazo[4,5-b][1,6]naphthyridin-8-one], the IC50 on hPAD4 enzyme [1] fell in the range of 0.101 to 0.5 µM; against hPAD4 enzyme [2] it was 0.011 to 0.1 µM.

In the case of `COc1cccc2cc(-c3nc4cc5c(nc4n3C)CCN(C[C@H](N)CF)C5=O)n(CC3OCCO3)c12` [Example 16, (S)-2-(1-((1,3-dioxolan-2-yl)methyl)-7-methoxy-1H-indol-2-yl)-7-(2-amino-3-fluoropropyl)-3-methyl-3,5,6,7-tetrahydro-8H-imidazo[4,5-b][1,6]naphthyridin-8-one], the IC50 on hPAD4 enzyme [1] and on hPAD4 enzyme [2] was 0.101 to 0.5 µM each time.

For `COc1cccc2cc(-c3nc4cc5c(nc4n3C)CCN(C[C@H](N)CF)C5=O)n(Cc3nc(C)cs3)c12` [Example 14, (S)-7-(2-amino-3-fluoropropyl)-2-(7-methoxy-1-((4-methylthiazol-2-yl)methyl)-1H-indol-2-yl)-3-methyl-3,5,6,7-tetrahydro-8H-imidazo[4,5-b][1,6]naphthyridin-8-one], the IC50 at hPAD4 enzyme [1] lay in the range of 0.501 to 1 µM; at hPAD4 enzyme [2], 0.011 to 0.1 µM.

Take `Cc1cn(CCOc2cccc3cc(-c4nc5cc6c(nc5n4C)CCN(C[C@H](N)CF)C6=O)n(CC4CC4)c23)cn1` [Example 72, (S)-7-(2-amino-3-fluoropropyl)-2-(1-(cyclopropylmethyl)-7-(2-(4-methyl-1H-imidazol-1-yl)ethoxy)-1H-indol-2-yl)-3-methyl-3,5,6,7-tetrahydro-8H-imidazo[4,5-b][1,6]naphthyridin-8-one]: the IC50 on hPAD4 enzyme [1] fell in the range of 0.101 to 0.5 µM; at hPAD4 enzyme [2], 0.011 to 0.1 µM.

Take `COc1cccc2cc(-c3nc4cc5c(nc4n3C)CCN(C[C@H](N)CF)C5=O)n(Cc3cc(C)no3)c12` [Example 12, (S)-7-(2-amino-3-fluoropropyl)-2-(7-methoxy-1-((3-methylisoxazol-5-yl)methyl)-1H-indol-2-yl)-3-methyl-3,5,6,7-tetrahydro-8H-imidazo[4,5-b][1,6]naphthyridin-8-one]: the IC50 on hPAD4 enzyme [1] and at hPAD4 enzyme [2] was 0.101 to 0.5 µM in each case.

As to `C[C@H](COc1cccc2cc(-c3nc4cc5c(nc4n3C)CCN(C[C@H](N)CF)C5=O)n(CC3CC3)c12)n1cnc(F)c1` [Example 85, 7-((S)-2-amino-3-fluoropropyl)-2-(1-(cyclopropylmethyl)-7-((R)-2-(4-fluoro-1H-imidazol-1-yl)propoxy)-1H-indol-2-yl)-3-methyl-3,5,6,7-tetrahydro-8H-imidazo[4,5-b][1,6]naphthyridin-8-one], the IC50 on hPAD4 enzyme [1] was 0.011 to 0.1 µM; against hPAD4 enzyme [2] it was no more than 0.01 µM.

Turning to `CC(Oc1cccc2cc(-c3nc4cc5c(nc4n3C)CCN(C[C@H](N)CF)C5=O)n(CC3CC3)c12)c1cc[nH]n1` (single isomer, unassigned) [Example 49a], the IC50 on hPAD4 enzyme [1] and at hPAD4 enzyme [2] was 0.011 to 0.1 µM each time.

For the compound `Cn1c(-c2cc3cccc(OCC(C)(C)n4ccnc4)c3n2CC2CC2)nc2cc3c(nc21)CCN(C[C@H](N)CF)C3=O` [Example 96, (S)-2-(7-(2-(1H-imidazol-1-yl)-2-methylpropoxy)-1-(cyclopropylmethyl)-1H-indol-2-yl)-7-(2-amino-3-fluoropropyl)-3-methyl-3,5,6,7-tetrahydro-8H-imidazo[4,5-b][1,6]naphthyridin-8-one], the results for the IC50 at hPAD4 enzyme [1] and on hPAD4 enzyme [2] were 0.101 to 0.5 µM and no more than 0.01 µM, respectively.

Take `COCC(=O)N1CCC(c2cccc3cc(-c4nc5cc6c(nc5n4C)CCN(C[C@H](N)CF)C6=O)n(CC4CC4)c23)CC1` [Example 30, (S)-7-(2-amino-3-fluoropropyl)-2-(1-(cyclopropylmethyl)-7-(1-(2-methoxyacetyl)piperidin-4-yl)-1H-indol-2-yl)-3-methyl-3,5,6,7-tetrahydro-8H-imidazo[4,5-b][1,6]naphthyridin-8-one]: the IC50 on hPAD4 enzyme [1] is no more than 0.01 µM; against hPAD4 enzyme [2], 0.011 to 0.1 µM.

For the compound `CC(Oc1cccc2cc(-c3nc4cc5c(nc4n3C)CCN(C[C@H](N)CF)C5=O)n(CC3CC3)c12)c1cc[nH]n1` (single isomer, unassigned) [Example 49b], the IC50 on hPAD4 enzyme [1] and against hPAD4 enzyme [2] was 0.101 to 0.5 µM each time.
